Experimental data from US11613536B2, “Heterocyclic compounds as immunomodulators” (Incyte Corporation, priority 2016, dated 2023).

Biological target: PD-1/PD-L1 protein/protein interaction (Homo sapiens (Human), UniProt Q9NZQ7)
Experiment: PD-1/PD-L1 Homogeneous Time-Resolved Fluorescence (HTRF) Binding Assay
Conditions: recombinant human PD-L1 (19-238) His-tag 10 nM, human PD-1 (25-167) Fc tag 3 nM, 25° C., PBS pH 7.4
Protocol: The assays were conducted in a standard black 384-well polystyrene plate with a final volume of 20 μL. Inhibitors were first serially diluted in DMSO and then added to the plate wells before the addition of other reaction components. The final concentration of DMSO in the assay was 1%. The assays were carried out at 25° C. in the PBS buffer (pH 7.4) with 0.05% Tween-20 and 0.1% BSA. Recombinant human PD-L1 protein (19-238) with a His-tag at the C-terminus was purchased from AcroBiosystems (PD1-H5229). Recombinant human PD-1 protein (25-167) with Fc tag at the C-terminus was also purchased from AcroBiosystems (PD1-H5257). PD-L1 and PD-1 proteins were diluted in the assay buffer and 10 μL was added to the plate well. Plates were centrifuged and proteins were preincubated with inhibitors for 40 minutes. The incubation was followed by the addition of 10 μL of HTRF detection buffer supplemented with Europium cryptate-labeled anti-human IgG (PerkinElmer-AD0212) specific for Fc and anti-His antibody conjugated to SureLight®-Allophycocyanin (APC, PerkinElmer-AD0059H). After centrifugation, the plate was incubated at 25° C. for 60 min. before reading on a PHERAstar FS plate reader (665 nm/620 nm ratio). Final concentrations in the assay were—3 nM PD1, 10 nM PD-L1, 1 nM europium anti-human IgG and 20 nM anti-His-Allophycocyanin. IC50 determination was performed by fitting the curve of percent control activity versus the log of the inhibitor concentration using the GraphPad Prism 5.0 software.

PD-1/PD-L1 protein/protein interaction, sequence (Q9NZQ7 19-238): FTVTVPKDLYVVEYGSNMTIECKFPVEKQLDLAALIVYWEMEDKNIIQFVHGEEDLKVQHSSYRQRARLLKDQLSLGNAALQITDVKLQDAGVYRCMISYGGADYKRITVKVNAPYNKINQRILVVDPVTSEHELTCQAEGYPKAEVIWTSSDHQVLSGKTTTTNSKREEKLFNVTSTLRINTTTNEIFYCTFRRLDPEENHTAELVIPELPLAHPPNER

Compound	IC50 [nM]
Cc1c(NC(=O)c2ncc(CNCCO)o2)cccc1-c1ccccc1 [Example 3, 5-{[(2-hydroxyethyl)amino]methyl}-N-(2-methylbiphenyl-3-yl)-1,3-oxazole-2-carboxamide]	100 to 500
Cc1c(NC(=O)c2ncc(CNCCO)n2C)cccc1-c1ccccc1 [Example 5, 5-{[(2-hydroxyethyl)amino]methyl}-1-methyl-N-(2-methylbiphenyl-3-yl)-1H-imidazole-2-carboxamide]	≤ 100
Cc1c(NC(=O)c2nc(Cl)c(CNCCO)s2)cccc1-c1ccccc1 [Example 8, 4-chloro-5-{[(2-hydroxyethyl)amino]methyl}-N-(2-methylbiphenyl-3-yl)-1,3-thiazole-2-carboxamide]	≤ 100
COc1cccc(-c2cccc(NC(=O)c3cc(CNCCO)n(C)n3)c2C#N)c1F [Example 12, N-(2-cyano-2′-fluoro-3′-methoxybiphenyl-3-yl)-5-{[(2-hydroxyethyl)amino]methyl}-1-methyl-1H-pyrazole-3-carboxamide]	≤ 100
Cc1c(NC(=O)c2ncc(CN3CCCC[C@H]3C(=O)O)n2C)cccc1-c1ccccc1 [Example 4, (2S)-1-[(1-methyl-2-{[(2-methylbiphenyl-3-yl)amino]carbonyl}-1H-imidazol-5-yl)methyl]piperidine-2-carboxylic acid]	100 to 500
Cn1c(CNCCO)cnc1C(=O)Nc1cccc(-c2cccc3c2cnn3C)c1C#N [Example 16, N-[2-cyano-3-(1-methyl-1H-indazol-4-yl)phenyl]-5-{[(2-hydroxyethyl)amino]methyl}-1-methyl-1H-imidazole-2-carboxamide]	100 to 500
Cc1c(NC(=O)c2ncc(CN3CCCC[C@H]3C(=O)O)s2)cccc1-c1ccccc1 [Example 1, (2S)-1-[(2-{[(2-methylbiphenyl-3-yl)amino]carbonyl}-1,3-thiazol-5-yl)methyl]piperidine-2-carboxylic acid]	≤ 100
Cn1nc(C(=O)Nc2cccc(-c3cccc4c3cnn4C)c2C#N)cc1CNCCO [Example 13, N-[2-cyano-3-(1-methyl-1H-indazol-4-yl)phenyl]-5-{[(2-hydroxyethyl)amino]methyl}-1-methyl-1H-pyrazole-3-carboxamide]	≤ 100
Cc1c(NC(=O)c2cc(CNCCO)n(C)n2)cccc1-c1ccccc1 [Example 7, 5-{[(2-hydroxyethyl)amino]methyl}-1-methyl-N-(2-methylbiphenyl-3-yl)-1H-pyrazole-3-carboxamide]	≤ 100
Cc1c(NC(=O)c2ncc(CNCCO)s2)cccc1-c1ccccc1 [Example 2, 5-{[(2-hydroxyethyl)amino]methyl}-N-(2-methylbiphenyl-3-yl)-1,3-thiazole-2-carboxamide]	≤ 100
COc1cccc(-c2cccc(NC(=O)c3ncc(CNCCO)n3C)c2C#N)c1F [Example 15, N-(2-cyano-2′-fluoro-3′-methoxybiphenyl-3-yl)-5-{[(2-hydroxyethyl)amino]methyl}-1-methyl-1H-imidazole-2-carboxamide]	≤ 100
Cn1nc(C(=O)Nc2cccc(-c3ccccc3F)c2C#N)cc1CNCCO [Example 11, N-(2-cyano-2′-fluorobiphenyl-3-yl)-5-{[(2-hydroxyethyl)amino]methyl}-1-methyl-1H-pyrazole-3-carboxamide]	≤ 100

The next lines start with the values.

IC50 [nM]	Compound
≤ 100	Cc1c(NC(=O)c2cc(CN3CCCC[C@H]3C(=O)O)n(C)n2)cccc1-c1ccccc1 [Example 6, (2S)-1-[(1-methyl-3-{[(2-methylbiphenyl-3-yl)amino]carbonyl}-1H-pyrazol-5-yl)methyl]piperidine-2-carboxylic acid]
≤ 100	Cc1c(COc2cc(OCc3cncc(C#N)c3)c(CN3CCCC[C@H]3C(=O)O)cc2Cl)cccc1-c1cccc(NC(=O)c2ncc(CN3CC[C@@H](O)C3)s2)c1C [Example 18, (S)-1-(5-chloro-2-((5-cyanopyridin-3-yl)methoxy)-4-((3′-(5-(((R)-3-hydroxypyrrolidin-1-yl)methyl)thiazole-2-carboxamido)-2,2′-dimethyl-[1,1′-biphenyl]-3-yl)methoxy)benzyl)piperidine-2-carboxylic acid]
≤ 100	Cn1nc(C(=O)Nc2cccc(-c3ccc4c(c3)OCCO4)c2C#N)cc1CNCCO [Example 10, N-[2-cyano-3-(2,3-dihydro-1,4-benzodioxin-6-yl)phenyl]-5-{[1(2-hydroxyethyl)amino]methyl}-1-methyl-1H-pyrazole-3-carboxamide]
≤ 100	Cn1c(CNCCO)cnc1C(=O)Nc1cccc(-c2ccc3c(c2)OCCO3)c1C#N [Example 14, N-[2-cyano-3-(2,3-dihydro-1,4-benzodioxin-6-yl)phenyl]-5-{[1(2-hydroxyethyl)amino]methyl}-1-methyl-1H-imidazole-2-carboxamide]
≤ 100	Cc1c(COc2cc(OCc3cncc(C#N)c3)c(CN3CCCC[C@H]3C(=O)O)cc2Cl)cccc1-c1cccc(NC(=O)c2ncc(CNCCO)s2)c1C [Example 17, (S)-1-(5-chloro-2-((5-cyanopyridin-3-yl)methoxy)-4-((3′-(5-(((2-hydroxyethyl)amino)methyl)thiazole-2-carboxamido)-2,2′-dimethyl-[1,1′-biphenyl]-3-yl)methoxy)benzyl)piperidine-2-carboxylic acid]
≤ 100	Cc1nc(C(=O)Nc2cccc(-c3ccccc3)c2C)sc1CNCCO [Example 9, 5-{[(2-hydroxyethyl)amino]methyl}-4-methyl-N-(2-methylbiphenyl-3-yl)-1,3-thiazole-2-carboxamide]
≤ 100	Cc1c(NC(=O)c2cc(CN3CC[C@@H](O)C3)n(C)n2)cccc1-c1cccc(NC(=O)c2ncc(CN3CC[C@@H](O)C3)s2)c1C [Example 19, 5-(((R)-3-hydroxypyrrolidin-1-yl)methyl)-N-(3′-(5-(((R)-3-hydroxypyrrolidin-1-yl)methyl)-1-methyl-1H-pyrazole-3-carboxamido)-2,2′-dimethyl-[1,1′-biphenyl]-3-yl)thiazole-2-carboxamide]
